Laboratory results: publication PMC6736568, “Discovery of Novel Anti-cryptosporidial Activities From Natural Products by in vitro High-Throughput Phenotypic Screening” (Frontiers in Microbiology, 2019)
Structures can show the parent of a compound that is named as a salt. Where two headings read alike, the source gives them in different places.

Tests used:
[1] = system: Cryptosporidium parvum; test: qRT-PCR assay of the growth of C. parvum in vitro in HCT-8 host cells (primary and secondary screening, EC50); format: cell-based; details: Cryptosporidium parvum; for inhibition at 10 µM: HCT-8
[2] = system: HCT-8 host cells (Hs18S)
[3] = in vitro
[4] = primary screening at 10 uM, read-out: Inhibition (%)
[5] = primary screening at 10 uM, treated vs control

SMILES | inhibition at 10 µM [1, 4] | Hs18S ΔCT ([2]; human, 41 h, 10 μM) | cytotoxicity at 41 h, 10 µM ([3]; human) | cytotoxicity at 10 µM [3] | Hs18S ΔCT [2, 5] | other results
O=C(/C=C/c1ccccc1)c1ccc(O[C@@H]2O[C@H](CO)[C@@H](O)[C@H](O)[C@H]2O)cc1O [2',4'-DIHYDROXYCHALCONE 4'-GLUCOSIDE] | -19.5% | 0.03 | 1.9% |  |  | 
O=c1cccc2n1C[C@@H]1CNC[C@H]2C1 [CYTISINE] |  |  |  | -20% |  | inhibition at 10 µM [1]: 16%; Hs18S ΔCT [2]: -0.26
C=C(C)[C@H]1CN[C@H](C(=O)O)[C@H]1CC(=O)O [KAINIC ACID] | -19.9% |  |  | -2.6% | -0.04 | 
CC1=C(/C=C/C(C)=C/C=C/C(C)=C/C=C/C=C(C)/C=C/C=C(C)/C=C/C(=O)[C@]2(C)C[C@@H](O)CC2(C)C)C(C)(C)C[C@H](O)C1 [CAPSANTHIN] | -5.31% | -0.08 | -5.5% |  |  | 
Nc1ncnc2c1ncn2[C@H]1C[C@H](O)[C@@H](CO)O1 [DEOXYADENOSINE] | 44.5% | -0.35 | -27.3% |  |  | 
COc1cc2c(cc1OC)[C@@]13CCN4CC5=CCO[C@H]6CC(=O)N2[C@H]1[C@H]6[C@H]5C[C@H]43 [BRUCINE] | 49.9% |  |  | -8.2% | -0.11 | 
CN1CC(=O)NC1=N [CREATININE] | 20.5% | 0.00 | 0.2% |  |  | 
N[C@@H](Cc1c[nH]c2ccccc12)C(=O)O [TRYPTOPHAN] |  | -0.75 | -68.2% |  |  | inhibition at 10 µM [1]: 85.5%; inhibition at 3.3 µM ([1]; HCT-8, read-out: % Inhibition (3.3 uM)): 17%
CC1(C)CC[C@]2(C(=O)O)CC[C@]3(C)C(=CC[C@@H]4[C@@]5(C)CC[C@H](O)[C@@](C)(CO)[C@@H]5CC[C@]43C)[C@@H]2C1 [HEDERAGENIN] | 53.4% |  |  | -7.7% | -0.11 | 
Cc1cc(OC(=O)c2c(C)cc(O)cc2O)cc(O)c1C(=O)O [LECANORIC ACID] | -20% | -0.02 | -1.2% |  |  | 
COc1ccc([C@H]2COc3c(ccc(O)c3OC)C2)c(OC)c1O [DUARTIN (-)] | -26.9% | -0.20 | -15.3% |  |  | 
O=C1c2c(O)cccc2C([C@@H]2O[C@H](CO)[C@@H](O)[C@H](O)[C@H]2O)c2cc(CO)cc(O)c21 (some centres unmarked) [ALOIN] | -0.73% | -0.63 | -54.3% |  |  | 
COc1cc2ccc(=O)oc2c(OC)c1OC [FRAXIDIN METHYL ETHER] | -37.3% |  |  | -39.5% | -0.48 | 
O=c1cc(-c2ccc(O)cc2)oc2cc(O)cc(O)c12 [APIGENIN] | -44.6% | 0.06 | 3.9% |  |  | 
COc1ccc(Cc2nccc3cc(OC)c(OC)cc23)cc1OC [PAPAVERINE HYDROCHLORIDE] | 56.2% |  | 32.7% |  |  | Hs18S ΔCT [2]: 0.57
CC1=CC(=O)c2ccccc2C1=O [MENADIONE] | -2.86% | 0.49 | 29% |  |  | 
O=C(O)[C@@H](O)[C@](O)(Cc1ccc(O)cc1)C(=O)O [PISCIDIC ACID] | -5.12% |  |  | -1.7% | -0.03 | 
CN1[C@@H]2C[C@@H](OC(=O)[C@H](CO)c3ccccc3)C[C@H]1[C@@H]1O[C@@H]12 [SCOPOLAMINE HYDROBROMIDE] | 14% |  |  | -29.6% | -0.37 | 
CC(=O)c1ccc[nH]1 [2-ACETYLPYRROLE] | 22.6% | -0.43 | -34.6% |  |  | 
C[C@H]1O[C@@H](O[C@H]2[C@@H](O)C[C@H](O[C@H]3[C@@H](O)C[C@H](O[C@H]4CC[C@@]5(C)[C@H](CC[C@@H]6[C@@H]5C[C@@H](O)[C@]5(C)[C@@H](C7=CC(=O)OC7)CC[C@]65O)C4)O[C@@H]3C)O[C@@H]2C)C[C@H](O)[C@@H]1O [DIGOXIN] |  |  |  | 100% | 14.32 | 
CO[C@H]1[C@H](O)[C@H](O[C@H]2CC[C@@]3(C=O)[C@H](CC[C@@H]4[C@@H]3CC[C@]3(C)[C@@H](C5=CC(=O)OC5)CC[C@]43O)C2)O[C@@H](C)[C@@H]1O [PERUVOSIDE] |  |  |  | 99.9% | 10.85 | 
C[C@@H]1O[C@@H](O[C@H]2C[C@@H](O)[C@]3(CO)[C@H]4[C@H](O)C[C@]5(C)[C@@H](C6=CC(=O)OC6)CC[C@]5(O)[C@@H]4CC[C@]3(O)C2)[C@H](O)[C@H](O)[C@H]1O [OUABAIN] |  |  |  |  | 11.65 | cytotoxicity at 41 h, 10 µM [3]: 100%
Cc1cc(O)c2c(c1O)C(=O)c1c(O)cc(C)c(O)c1C2=O [1,4,5,8-TETRAHYDROXY-2,6-DIMETHYLANTHROQUINONE] |  | 3.65 | 92% |  |  | 
C[C@]12CC[C@H]3[C@@H](CC[C@]4(O)C[C@@H](O)CC[C@]34C=O)[C@@]1(O)CC[C@@H]2C1=CC(=O)OC1 [STROPHANTHIDIN] |  |  | 100% |  | 11.98 | 
